Source: patent US20260273081A1, “INHIBITORS OF ETS2-ACTIVATING MOLECULES FOR THE TREATMENT OF INFLAMMATORY DISEASES” (The Francis Crick Institute Limited, priority 2023, published 2026)

Experiments:
[1] = test system: inflammatory macrophages (TPP); assay: MEK inhibitor (PD-0325901) testing in inflammatory macrophages (TPP), RNA-seq and fGSEA; assay type: cell-based, human
Description: Leukocyte cones from healthy donors were obtained from NHS Blood and Transplant (Cambridge Blood Donor Centre, Colindale Blood Centre, or Tooting Blood Donor Centre). Peripheral blood mononuclear cells (PBMCs) were isolated by density centrifugation (Histopaque 1077, Sigma) and monocytes were positively selected using CD14 Microbeads (Miltenyi Biotec). Macrophage differentiation was performed using conditions that model chronic inflammation (TPP): 3 days GM-CSF (50 ng/ml, Peprotech) followed by 3 days GM-CSF, TNFα (50 ng/ml, Peprotech), PGE2 (1 μg/ml, Sigma Aldrich), and […] (1 μg/ml, Invivogen). […]
RNA was isolated from macrophage lysates (AllPrep DNA/RNA Micro Kit, Qiagen) and sequencing libraries prepared from 10 ng RNA using the SMARTer Stranded Total RNA-Seq Kit v2-Pico Input Mammalian (Takara) following the manufacturer's instructions. Libraries were sequenced on a NextSeq2000 (50 bp, PE reads: CRISPR-based loss-of-function, roxadustat and PD-0325901 experiments) or a NovaSeq6000 (100 bp, PE reads: overexpression experiments). Reads were trimmed using Trim Galore (Phred score 24), filtered to remove reads <20 bp, and ribosomal reads were removed using the BBSplit function of BBMap (BBMap, sourceforge.net/projects/bbmap/) with the Human ribosomal DNA complete repeating unit (GenBank: U13369.1). […]

[2] = test system: intestinal mucosal biopsies from patients with active IBD; assay: Human gut explant model: IBD intestinal mucosal biopsies cultured on transwell insert; assay type: cell-based; conditions: 18 hours culture; for release of IBD-associated inflammatory cytokines from biopsies: PD-0325901 0.5 μM or infliximab 10 µg/ml, vs DMSO, n=10
Description: During colonoscopy, intestinal mucosal biopsies (6 per donor) were collected from 10 IBD patients (7 ulcerative colitis, 3 Crohn's disease). All had endoscopically active disease and were not receiving immunosuppressive or biologic therapies. All biopsies were collected from a single inflamed site. All patients provided written informed consent. Ethical approval was provided by the London-Brent Regional Ethics Committee (REC: 21/LO/0682). Biopsies were collected into Opti-MEM and within 1 hour were weighed and placed in pairs onto a transwell insert (ThermoFisher)—designed to create an air-liquid interface70—in a 24-well plate. Each well contained 1 ml media and was supplemented with either DMSO (vehicle control), PD-0325901 (0.5 μM) or infliximab ([…]; MSD). Media: Opti-MEM I (Gibco); GlutaMAX (ThermoFisher): 10% FBS (ThermoFisher), MEM Non-Essential Amino Acids (ThermoFisher); 1% sodium pyruvate (ThermoFisher); 1% penicillin/streptomycin (ThermoFisher); 500 µg/ml gentamicin (Merck). After 18 hours, supernatants and biopsies were snap frozen. Supernatant cytokine concentrations were quantified using LEGENDplex Human Inflammation Panel (Biolegend). RNA was extracted from biopsies and libraries prepared as described earlier (n=9, RNA from one donor was too degraded). Sequencing was performed on a NovaSeq 6000 (100 bp, PE reads). Data were processed as described earlier and GSVA was performed for ETS2-regulated genes and biopsy-derived signatures of IBD-associated inflammation.

[3] = test system: ETS2; assay: CRISPR-Cas9 editing efficiency at the ETS2 locus in primary monocytes; assay type: cell-based, human; conditions: Cas9 RNPs nucleofected into primary monocytes; ICE analysis
Description: (§1) gRNA sequences were designed using CRISPick (formerly GPP sgRNA Designer) and synthesised by IDT. gRNA sequences: chr21q22 5′ gRNA, […]; chr21q22 3′ gRNA, […]; ETS2 gRNA1, […]; ETS2 gRNA2, […]. Alt-R CRISPR-Cas9 Negative Control crRNA #1 (IDT) was used as a non-targeting control. Cas9-gRNA ribonucleoproteins were assembled as described previously and nucleofected into 5×10^6 monocytes in 100 μL nucleofection buffer (Human Monocyte Nucleofection Kit, Lonza) using a Nucleofector 2b (Lonza, program Y-001). After nucleofection, monocytes were immediately transferred into 5 ml of pre-warmed culture media in a 6-well flat-bottomed plate, and differentiated into macrophages under TPP conditions. Editing efficiency was quantified by PCR amplification of the target region in extracted DNA (chr21q22_Fw primer, […]; chr21q22_Rv, […]; ETS2_g1_Fw, […]; ETS2_g1_Rv, […]; ETS2_g2_Fw, […]; ETS2_g2_Rv, […]). Editing efficiency at the chr21q22 locus was measured via quantification of amplified fragments (2100 Bioanalyzer, Agilent) as previously described. Editing efficiency for individual gRNAs was assessed using the Inference of CRISPR Edits tool (ICE, Synthego).

[4] = test system: macrophages; assay: Viability and myeloid markers of macrophages after nucleofection with Cas9 RNPs and TPP differentiation; assay type: cell-based, human; conditions: TPP differentiation
Description: as §1
Expression of myeloid markers was assessed by flow cytometry (BD LSRFortessaTMX-20). […] Data were analysed using FlowJo v10 (BD Biosciences).

Compound | anti-inflammatory activity (relative expression of chr21q22-regulated genes), phenocopying ETS2 disruption or chr21q22 enhancer deletion ([1]; PD-0325901 0.5 μM added day 4, harvested day 6, vs vehicle (DMSO), n=3) | inflammatory pathways (fGSEA, Gene Ontology Biological Pathways) ([1]; PD-0325901 0.5 μM, day 4 to day 6, vs vehicle) | release of IBD-associated inflammatory cytokines from biopsies [2] | expression of ETS2-regulated genes in IBD biopsies (GSVA) ([2]; PD-0325901 0.5 μM, n=9) | validated transcriptional inflammation score (bMIS, GSVA) ([2]; PD-0325901 0.5 μM, n=9) | editing efficiency at the ETS2 locus, mean indel rate [3] [%] | viability of macrophages following nucleofection with Cas9 RNPs and differentiation, mean [4] [%]
O=C(NOC[C@H](O)CO)c1ccc(F)c(F)c1Nc1ccc(I)cc1F [PD-0325901] | potent anti-inflammatory activity | downregulation of multiple inflammatory pathways | significantly reduced | reduced | significant improvement | – | –
gRNA1: ETS2 guide RNA, CAGACACAGAAUUACCCCAA, delivered as Cas9 RNP (delivered as Cas9 ribonucleoprotein complex, further chemistry not given here) | – | – | – | – | – | 89.7 | 98.3
gRNA2: ETS2 guide RNA, UUGCUGCACGGGGUUAACAA, delivered as Cas9 RNP (delivered as Cas9 ribonucleoprotein complex, further chemistry not given here) | – | – | – | – | – | 78.6 | 98.6
infliximab | – | – | comparable levels | – | – | – | –
